pIC50: −log10 of the molar value. Active and inactive are the calls of the source. The rule behind the calls is not given here.
Tests used:
[1] = target: Protein kinase C alpha type (Homo sapiens) (UniProt P17252); assay: Inhibition of recombinant human full length GST-tagged PRKCA expressed in baculovirus expression system at 2 uM using Ser/Thr 07 as substrate measured after 1 hr by Z'-LYTE assay relative to control
[2] = target: Ephrin type-A receptor 5 (Homo sapiens) (UniProt P54756); assay: Inhibition of recombinant human GST-tagged EPHA5 (595-1037 residues) expressed in insect cells at 2 uM using Tyr 01 as substrate measured after 1 hr by Z'-LYTE assay relative to control; settings: Insect cell
[3] = target: G protein-coupled receptor kinase 3 (Homo sapiens) (UniProt P35626); assay: Inhibition of recombinant human full-length GST-tagged ADRBK2 expressed in insect cells at 2 uM using Ser/Thr 16 as substrate measured after 1 hr by Z'-LYTE assay relative to control; settings: Insect cell
[4] = target: Ribosomal protein S6 kinase alpha-6 (Homo sapiens) (UniProt Q9UK32); assay: Inhibition of recombinant human full length GST-tagged RPS6KA6 expressed in insect cells at 2 uM using Ser/Thr 20 as substrate measured after 1 hr by Z'-LYTE assay relative to control; settings: Insect cell
[5] = system: MDA-MB-361; assay: Induction of apoptosis in human MDA-MB-361 cells assessed as little increase in G1 phase at 5 micromol/L incubated for 12 hrs by FACS analysis relative to control; type: functional, cell-based; settings: dose 5.0 µmol/L
[6] = target: Cyclin-dependent kinase 1/cyclin B1 (Homo sapiens) (UniProt P06493+P14635); assay: Inhibition of recombinant human full-length His-tagged CDK1/cyclin B expressed in insect cells at 2 uM using Ser/Thr 18 as substrate measured after 1 hr by Z'-LYTE assay relative to control; settings: Insect cell
[7] = system: PC3MM2; assay: Antitumor activity against human PC3MM2 cells xenografted in female nude mouse model assessed as suppression in P-AKT at S473 level at 50 mg/kg, iv administered once a week and measured at least 8 hrs by immunoblot analysis; type: functional, organism-based
[8] = target: Serine/threonine-protein kinase Nek1 (Homo sapiens) (UniProt Q96PY6); assay: Inhibition of recombinant human GST-tagged NEK1 (1-505 residues) expressed in insect cells at 2 uM using Ser/Thr 07 as substrate measured after 1 hr by Z'-LYTE assay relative to control; settings: Insect cell
Sequence of Serine/threonine-protein kinase Nek1 (Homo sapiens) (Q96PY6 whole entry, the tested form may be a part): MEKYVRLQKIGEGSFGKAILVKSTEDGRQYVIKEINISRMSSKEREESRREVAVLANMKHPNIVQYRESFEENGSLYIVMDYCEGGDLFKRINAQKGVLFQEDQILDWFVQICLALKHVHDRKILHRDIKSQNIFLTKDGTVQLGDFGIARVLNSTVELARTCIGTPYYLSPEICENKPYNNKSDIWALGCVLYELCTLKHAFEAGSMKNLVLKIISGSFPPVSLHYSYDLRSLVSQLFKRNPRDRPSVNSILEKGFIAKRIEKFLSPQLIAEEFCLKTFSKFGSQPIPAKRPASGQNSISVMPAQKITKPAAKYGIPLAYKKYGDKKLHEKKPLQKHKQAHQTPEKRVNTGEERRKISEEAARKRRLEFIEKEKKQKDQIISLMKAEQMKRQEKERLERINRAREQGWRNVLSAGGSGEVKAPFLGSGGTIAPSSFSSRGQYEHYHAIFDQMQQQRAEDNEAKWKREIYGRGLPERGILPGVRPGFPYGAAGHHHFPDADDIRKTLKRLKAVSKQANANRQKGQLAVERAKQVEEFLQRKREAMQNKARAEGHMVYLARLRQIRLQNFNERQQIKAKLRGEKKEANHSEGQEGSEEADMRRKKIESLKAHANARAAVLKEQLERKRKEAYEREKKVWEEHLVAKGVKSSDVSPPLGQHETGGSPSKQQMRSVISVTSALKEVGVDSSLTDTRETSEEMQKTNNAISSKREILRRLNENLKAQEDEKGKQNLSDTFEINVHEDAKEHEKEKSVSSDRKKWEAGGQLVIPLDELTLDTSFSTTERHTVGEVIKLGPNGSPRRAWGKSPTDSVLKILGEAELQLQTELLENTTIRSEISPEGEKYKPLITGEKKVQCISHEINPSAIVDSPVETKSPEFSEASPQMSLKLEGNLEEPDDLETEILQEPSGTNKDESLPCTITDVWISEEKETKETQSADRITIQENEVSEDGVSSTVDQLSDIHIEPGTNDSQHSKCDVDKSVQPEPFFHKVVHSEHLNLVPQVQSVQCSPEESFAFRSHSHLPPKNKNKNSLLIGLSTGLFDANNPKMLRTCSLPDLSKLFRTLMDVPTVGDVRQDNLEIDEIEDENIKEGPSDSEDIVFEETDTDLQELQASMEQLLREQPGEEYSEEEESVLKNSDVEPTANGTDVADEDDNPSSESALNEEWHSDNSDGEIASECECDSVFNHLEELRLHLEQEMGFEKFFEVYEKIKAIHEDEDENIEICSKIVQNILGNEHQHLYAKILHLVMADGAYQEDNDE

[9] = system: U-87 MG; assay: Induction of apoptosis in human U-87MG cells assessed as increase in G1 phase at 1 micromol/L incubated for 24 hrs by FACS analysis; type: functional, cell-based; settings: U-87MG ATCC, dose 1.0 µmol/L
[10] = target: Mitogen-activated protein kinase kinase kinase kinase 4 (Homo sapiens) (UniProt O95819); assay: Inhibition of recombinant human GST-tagged MAP4K4 (1-328 residues) expressed in insect cells at 2 uM using Ser/Thr 07 as substrate measured after 1 hr by Z'-LYTE assay relative to control; settings: Insect cell
[11] = system: 786-0; assay: Antiproliferative activity against human 786-0 cells assessed as cell growth inhibition incubated for 24 hrs by MTS assay; type: functional, cell-based; settings: 786-0, 24 h
[12] = target: Ephrin type-B receptor 1 (Homo sapiens) (UniProt P54762); assay: Inhibition of recombinant human GST-tagged EPHB1 (613-881 residues) expressed in insect cells at 2 uM using Tyr 02 as substrate measured after 1 hr by Z'-LYTE assay relative to control; settings: Insect cell
Sequence of Ephrin type-B receptor 1 (Homo sapiens) (P54762 whole entry, the tested form may be a part): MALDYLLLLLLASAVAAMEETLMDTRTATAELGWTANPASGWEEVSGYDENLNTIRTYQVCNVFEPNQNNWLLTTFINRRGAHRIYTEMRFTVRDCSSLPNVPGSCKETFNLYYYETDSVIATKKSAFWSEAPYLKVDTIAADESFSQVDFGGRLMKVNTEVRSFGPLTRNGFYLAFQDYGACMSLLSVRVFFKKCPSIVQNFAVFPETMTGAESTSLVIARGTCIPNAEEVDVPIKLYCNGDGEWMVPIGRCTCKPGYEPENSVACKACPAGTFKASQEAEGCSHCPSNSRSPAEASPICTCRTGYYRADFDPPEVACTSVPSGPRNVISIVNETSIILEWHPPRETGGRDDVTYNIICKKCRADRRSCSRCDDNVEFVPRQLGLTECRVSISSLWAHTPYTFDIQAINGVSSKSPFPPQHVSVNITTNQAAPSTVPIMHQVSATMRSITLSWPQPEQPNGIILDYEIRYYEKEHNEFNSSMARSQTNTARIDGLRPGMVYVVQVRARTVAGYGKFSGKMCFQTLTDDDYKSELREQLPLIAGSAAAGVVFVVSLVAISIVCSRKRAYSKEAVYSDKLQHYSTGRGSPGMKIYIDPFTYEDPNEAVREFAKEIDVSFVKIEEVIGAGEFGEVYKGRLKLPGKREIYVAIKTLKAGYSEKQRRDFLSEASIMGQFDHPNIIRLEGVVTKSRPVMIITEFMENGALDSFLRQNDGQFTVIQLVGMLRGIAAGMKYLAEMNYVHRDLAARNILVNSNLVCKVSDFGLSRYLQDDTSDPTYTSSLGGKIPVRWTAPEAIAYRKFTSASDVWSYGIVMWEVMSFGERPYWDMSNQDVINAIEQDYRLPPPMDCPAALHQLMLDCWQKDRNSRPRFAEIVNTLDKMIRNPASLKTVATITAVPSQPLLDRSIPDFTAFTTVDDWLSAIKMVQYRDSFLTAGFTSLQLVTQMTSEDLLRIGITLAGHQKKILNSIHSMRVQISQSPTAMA

[13] = target: Vascular endothelial growth factor receptor 2 (Homo sapiens) (UniProt P35968); assay: Inhibition of recombinant human His-tagged KDR (789-1356 residues) expressed in insect cells at 2 uM using […] as substrate measured after 1 hr by Z'-LYTE assay relative to control; settings: Insect cell
[14] = system: BT-474; assay: Induction of apoptosis in human BT-474 cells assessed as increase in PARP cleavage at 0.3 to 3 micromol/L incubated for 48 hrs by Western blot analysis; type: functional, cell-based; settings: dose 0.3-3 µmol/L
[15] = target: Mitogen-activated protein kinase 11 (Homo sapiens) (UniProt Q15759); assay: Inhibition of recombinant human full length His-tagged MAPK11 expressed in insect cells at 2 uM using Ser/Thr 15 as substrate measured after 1 hr by Z'-LYTE assay relative to control; settings: Insect cell
[16] = target: BDNF/NT-3 growth factors receptor (Homo sapiens) (UniProt Q16620); assay: Inhibition of recombinant human His-tagged NTRK2 (526-838 residues) expressed in insect cells at 2 uM using Tyr 01 as substrate measured after 1 hr by Z'-LYTE assay relative to control; settings: Insect cell
Sequence of BDNF/NT-3 growth factors receptor (Homo sapiens) (Q16620 32-822 limits assumed): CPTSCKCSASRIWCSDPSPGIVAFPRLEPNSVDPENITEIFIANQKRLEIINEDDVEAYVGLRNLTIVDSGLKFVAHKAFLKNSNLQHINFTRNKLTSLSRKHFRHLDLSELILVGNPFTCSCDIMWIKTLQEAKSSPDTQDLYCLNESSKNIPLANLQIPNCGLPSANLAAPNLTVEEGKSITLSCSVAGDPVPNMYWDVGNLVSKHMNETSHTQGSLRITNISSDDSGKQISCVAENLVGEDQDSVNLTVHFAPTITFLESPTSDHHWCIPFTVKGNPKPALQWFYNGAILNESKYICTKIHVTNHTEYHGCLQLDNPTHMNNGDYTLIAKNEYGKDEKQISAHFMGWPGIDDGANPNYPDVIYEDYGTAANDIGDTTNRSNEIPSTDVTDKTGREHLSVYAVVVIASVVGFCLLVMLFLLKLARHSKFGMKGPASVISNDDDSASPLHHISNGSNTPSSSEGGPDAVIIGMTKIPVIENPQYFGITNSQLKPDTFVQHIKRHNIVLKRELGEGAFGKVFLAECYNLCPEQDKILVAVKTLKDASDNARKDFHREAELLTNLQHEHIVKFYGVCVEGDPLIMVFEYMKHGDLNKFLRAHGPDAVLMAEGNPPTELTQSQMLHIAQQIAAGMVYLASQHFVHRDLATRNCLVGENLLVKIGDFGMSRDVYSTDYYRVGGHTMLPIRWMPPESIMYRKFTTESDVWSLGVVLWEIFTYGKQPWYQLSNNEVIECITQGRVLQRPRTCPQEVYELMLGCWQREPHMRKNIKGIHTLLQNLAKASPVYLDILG

[17] = target: AMP-activated protein kinase (AMPK) alpha-1/beta-1/gamma-1 (Homo sapiens) (UniProt P54619+Q9Y478+Q13131); assay: Inhibition of recombinant human full-length GST/His-tagged AMPKalpha1/beta1/gamma1 expressed in insect cells at 2 uM using Ser/Thr 23 as substrate measured after 1 hr by Z'-LYTE assay relative to control; settings: Insect cell
[18] = target: Insulin receptor (Homo sapiens) (UniProt P06213); assay: Inhibition of recombinant human GST-tagged INSR (1011-1382 residues) expressed in insect cells at 2 uM using Tyr 01 as substrate measured after 1 hr by Z'-LYTE assay relative to control; settings: Insect cell
[19] = target: Ephrin type-B receptor 2 (Homo sapiens) (UniProt P29323); assay: Inhibition of recombinant human GST-tagged EPHB2 (616-884 residues) expressed in insect cells at 2 uM using Tyr 02 as substrate measured after 1 hr by Z'-LYTE assay relative to control; settings: Insect cell
[20] = target: Eukaryotic elongation factor 2 kinase (Homo sapiens) (UniProt O00418); assay: Inhibition of recombinant human full-length GST-tagged EEF2K expressed in E. coli at 2 uM using Ser/Thr 24 as substrate measured after 1 hr by Z'-LYTE assay relative to control
[21] = system: U-87 MG; assay: Antitumor activity against human U-87MG cells assessed as lactate production incubated for 24 hrs; type: functional, cell-based; settings: U-87MG ATCC, dose 0.01-10 µmol/L
[22] = target: Protein kinase C zeta type (Homo sapiens) (UniProt Q05513); assay: Inhibition of recombinant human PRKCZ at 2 uM using Ser/Thr 07 as substrate measured after 1 hr by Z'-LYTE assay relative to control
Sequence of Protein kinase C zeta type (Homo sapiens) (Q05513 whole entry): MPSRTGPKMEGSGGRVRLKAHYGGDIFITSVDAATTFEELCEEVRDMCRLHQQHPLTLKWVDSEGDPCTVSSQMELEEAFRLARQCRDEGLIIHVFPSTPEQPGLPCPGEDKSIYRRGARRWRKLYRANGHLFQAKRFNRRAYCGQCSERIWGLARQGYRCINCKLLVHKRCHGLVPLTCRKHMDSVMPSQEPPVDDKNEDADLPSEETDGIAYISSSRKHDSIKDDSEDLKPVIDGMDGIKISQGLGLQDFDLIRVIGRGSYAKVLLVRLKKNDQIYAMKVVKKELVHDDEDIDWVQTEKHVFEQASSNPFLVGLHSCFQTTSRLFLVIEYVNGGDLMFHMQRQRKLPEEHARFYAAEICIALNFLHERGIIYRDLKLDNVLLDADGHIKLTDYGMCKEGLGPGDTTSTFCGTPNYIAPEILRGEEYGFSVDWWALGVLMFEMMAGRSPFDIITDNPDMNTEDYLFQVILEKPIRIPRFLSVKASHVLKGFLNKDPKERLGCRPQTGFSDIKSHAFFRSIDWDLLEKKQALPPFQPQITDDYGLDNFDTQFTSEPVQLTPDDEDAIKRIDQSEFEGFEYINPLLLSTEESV

[23] = system: Rat1; assay: Inhibition of mTORC2 in rat Rat1 cells assessed as reduction in AKT phosphorylation at T308 level at 0.01 to 2 uM incubated for 1 hrs in the presence of IGF-1 stimulation by immunoblot assay; type: cell-based; settings: dose 0.01-2 µM
[24] = target: Calcium/calmodulin-dependent protein kinase type II subunit beta (Homo sapiens) (UniProt Q13554); assay: Inhibition of recombinant human full-length His-tagged CAMK2B expressed in insect cells at 2 uM using Ser/Thr 17 as substrate measured after 1 hr by Z'-LYTE assay relative to control; settings: Insect cell
[25] = target: Serine/threonine-protein kinase DCLK2 (Homo sapiens) (UniProt Q8N568); assay: Inhibition of recombinant human full-length GST-tagged DCAMKL2 expressed in baculovirus expression system at 2 uM using Ser/Thr 17 as substrate measured after 1 hr by Z'-LYTE assay relative to control
Sequence of Serine/threonine-protein kinase DCLK2 (Homo sapiens) (Q8N568 whole entry): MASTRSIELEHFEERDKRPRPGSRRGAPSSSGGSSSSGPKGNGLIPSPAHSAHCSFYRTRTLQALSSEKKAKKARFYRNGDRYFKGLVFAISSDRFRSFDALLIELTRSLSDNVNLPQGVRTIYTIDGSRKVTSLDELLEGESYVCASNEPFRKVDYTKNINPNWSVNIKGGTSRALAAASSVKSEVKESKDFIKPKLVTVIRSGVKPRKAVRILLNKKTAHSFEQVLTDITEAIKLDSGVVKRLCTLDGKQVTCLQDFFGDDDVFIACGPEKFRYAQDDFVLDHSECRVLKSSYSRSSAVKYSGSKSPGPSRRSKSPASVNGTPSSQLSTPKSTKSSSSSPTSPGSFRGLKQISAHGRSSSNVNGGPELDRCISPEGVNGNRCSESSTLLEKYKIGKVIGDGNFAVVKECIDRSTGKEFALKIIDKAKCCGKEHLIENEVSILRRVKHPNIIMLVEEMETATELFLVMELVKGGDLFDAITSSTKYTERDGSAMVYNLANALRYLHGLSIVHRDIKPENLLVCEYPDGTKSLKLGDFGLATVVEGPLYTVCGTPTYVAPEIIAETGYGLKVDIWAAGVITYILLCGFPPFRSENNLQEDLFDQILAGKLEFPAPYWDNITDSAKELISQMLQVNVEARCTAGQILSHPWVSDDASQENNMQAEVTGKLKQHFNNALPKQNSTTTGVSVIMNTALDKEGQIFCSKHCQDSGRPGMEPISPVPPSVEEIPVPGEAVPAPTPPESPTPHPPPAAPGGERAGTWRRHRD

CNC(=O)Nc1ccc(-c2nc(N3CC4CCC(C3)O4)c3cnn(C4CCC5(CC4)OCCO5)c3n2)cc1
inhibition [1]: 10% | inhibition [2]: 2% | inhibition [3]: -3% | inhibition [4]: 12% | Activity [5]: Active | inhibition [6]: 6% | Activity [7]: Active | inhibition [8]: 7% | Activity [9]: Active | inhibition [10]: 10% | pIC50 [11]: 6.92 | inhibition [12]: 2% | inhibition [13]: 7% | Activity [14]: Active | inhibition [15]: 2% | inhibition [16]: 1% | inhibition [17]: 5% | inhibition [18]: 4% | inhibition [19]: 6% | inhibition [20]: 1% | Activity [21]: Dose-Dependent Effect | inhibition [22]: 8% | inhibition [23]: inactive | inhibition [24]: 8% | inhibition [25]: 2%

Source: ChEMBL document CHEMBL5696439 (Cancer Res, 2010)
